# Reference: US12342823B2, “Active compound combinations having insecticidal/acaricidal properties” (Bayer Aktiengesellschaft, priority 2018, dated 2025)
# Tested on: green peach aphid (Myzus persicae)
# Assay: Myzus persicae - spray test on cabbage leaves
# Format: in vivo
# Details: mortality, 1600 ppm, spray on infested cabbage leaves
# Method: The expected efficacy of a given combination of two compounds is calculated as follows (see Colby, S.R., “Calculating Synergistic and antagonistic Responses of Herbicide Combinations”, Weeds 15, pp. 20-22, 1967):
# If • X is the efficacy expressed in % mortality of the untreated control for test compound A at a concentration of m ppm or m g/ha, • Y is the efficacy expressed in % mortality of the untreated control for test compound B at a concentration of n ppm or n g/ha, • E is the efficacy expressed in % mortality of the untreated control using the mixture of A and B at m and n ppm respectively m and n g/ha, • then is
# If the observed insecticidal efficacy of the combination is higher than the one calculated as “E”, then the combination of the two compounds is more than additive, i.e., there is a synergistic effect.
# Myzus persicae—Spray Test
# • Solvent: 7 parts by weight of dimethylformamide • Emulsifier: alkylaryl polyglycol ether
# To produce a suitable preparation of active compound, 1 part by weight of active compound is mixed with the stated amount of solvent and is diluted with water, containing an emulsifier concentration of 1000 ppm, to the desired concentration. […]
# After the specified period of time mortality in % is determined. […] The mortality values determined thus are recalculated using the Colby-formula (see sheet 1).
smiles,measurement,value
"C=C(C)[C@H]1CC=C(C)CC1 [(R)-(+)-limonene 97%, (R)-(+)-limonene]",Efficacy in % after 6 days,0%
